Assay results taken from PubChem BioAssay (NCI).
Values joined by “and” are separate entries in the source; they are usually repeats but may differ in a detail not shown here. Equal entries are not always repeated.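 Following 48 hours of exposure in 96-well plates, responses at five concentrations were used to interpolate endpoints linearly. Here, GI50 denotes the concentration required for 50% inhibition of growth. Definition used: TGI = concentration required for complete inhibition of growth.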 Where a SMILES comes first, the peptide text is derived from it. [ ]: non-standard residue; d: D form. The star is where a group is joined. Dolaproine = CO[C@@H]([C@@H]1CCCN1)[C@@H](C)C(=O)O; Dil = CC[C@H](C)[C@H](NC)[C@@H](CC(=O)O)OC; X2 = C[C@@H](N*)[C@@H](O)c1ccccc1; NMeV = CN[C@H](C(=O)O)C(C)C

Experiments:
Assay in all cases: inhibition of tumour cell growth, NCI panel, 48 h
786-0 renal = tested on: 786-0 renal
A498 renal = tested on: A498 renal
A549 NSCLC = tested on: A549 NSCLC
ACHN renal = tested on: ACHN renal
BT-549 breast = tested on: BT-549 breast
CAKI-1 renal = tested on: CAKI-1 renal
CCRF-CEM leukemia = tested on: CCRF-CEM leukemia
COLO 205 colon = tested on: COLO 205 colon
DU-145 prostate = tested on: DU-145 prostate
EKVX NSCLC = tested on: EKVX NSCLC
HCT-116 colon = tested on: HCT-116 colon
HCT-15 colon = tested on: HCT-15 colon
HL-60(TB) leukemia = tested on: HL-60(TB) leukemia
HOP-62 NSCLC = tested on: HOP-62 NSCLC
HOP-92 NSCLC = tested on: HOP-92 NSCLC
HT29 colon = tested on: HT29 colon
IGROV1 ovarian = tested on: IGROV1 ovarian
K-562 leukemia = tested on: K-562 leukemia
KM12 colon = tested on: KM12 colon
LOX IMVI melanoma = tested on: LOX IMVI melanoma
M14 melanoma = tested on: M14 melanoma
MALME-3M melanoma = tested on: MALME-3M melanoma
MCF7 breast = tested on: MCF7 breast
MDA-MB-435 = tested on: MDA-MB-435
MOLT-4 leukemia = tested on: MOLT-4 leukemia
NCI-H226 lung = tested on: NCI-H226 lung
NCI-H23 lung = tested on: NCI-H23 lung
NCI-H460 lung = tested on: NCI-H460 lung
NCI-H522 lung = tested on: NCI-H522 lung
NCI/ADR-RES ovarian = tested on: NCI/ADR-RES ovarian
OVCAR-3 ovarian = tested on: OVCAR-3 ovarian
OVCAR-4 ovarian = tested on: OVCAR-4 ovarian
OVCAR-5 ovarian = tested on: OVCAR-5 ovarian
OVCAR-8 ovarian = tested on: OVCAR-8 ovarian
PC-3 prostate = tested on: PC-3 prostate
RPMI-8226 leukemia = tested on: RPMI-8226 leukemia
SF-268 CNS = tested on: SF-268 CNS
SF-295 CNS = tested on: SF-295 CNS
SF-539 CNS = tested on: SF-539 CNS
SK-MEL-2 melanoma = tested on: SK-MEL-2 melanoma
SK-MEL-28 melanoma = tested on: SK-MEL-28 melanoma
SK-MEL-5 melanoma = tested on: SK-MEL-5 melanoma
SK-OV-3 ovarian = tested on: SK-OV-3 ovarian
SN12C renal = tested on: SN12C renal
SNB-19 CNS = tested on: SNB-19 CNS
SR leukemia = tested on: SR leukemia
SW-620 colon = tested on: SW-620 colon
T-47D breast = tested on: T-47D breast
TK-10 renal = tested on: TK-10 renal
U251 CNS = tested on: U251 CNS
UACC-257 melanoma = tested on: UACC-257 melanoma
UACC-62 melanoma = tested on: UACC-62 melanoma
UO-31 renal = tested on: UO-31 renal
HCC-2998 colon = tested on: HCC-2998 colon
HS 578T breast = tested on: HS 578T breast
MDA-MB-231 breast = tested on: MDA-MB-231 breast
SNB-75 CNS = tested on: SNB-75 CNS

C=C(CBr)CCCOCc1ccccc1
TGI (786-0 renal): > 100 µM
TGI (A498 renal): > 100 µM
TGI (A549 NSCLC): > 100 µM
TGI (ACHN renal): 27.3 µM
TGI (BT-549 breast): 35.4 µM
TGI (CAKI-1 renal): 18.2 µM
TGI (CCRF-CEM leukemia): > 100 µM
TGI (COLO 205 colon): 54 µM
TGI (DU-145 prostate): > 100 µM
TGI (EKVX NSCLC): 46.6 µM
TGI (HCT-116 colon): > 100 µM
TGI (HCT-15 colon): 68.2 µM
TGI (HL-60(TB) leukemia): 72.6 µM
TGI (HOP-62 NSCLC): 48.6 µM
TGI (HOP-92 NSCLC): 49.8 µM
TGI (HT29 colon): 39.2 µM
TGI (IGROV1 ovarian): 44.3 µM
TGI (K-562 leukemia): > 100 µM
TGI (KM12 colon): 33.7 µM
TGI (LOX IMVI melanoma): 92.9 µM
TGI (M14 melanoma): 31.9 µM
TGI (MALME-3M melanoma): 41.7 µM
TGI (MCF7 breast): 77.1 µM
TGI (MDA-MB-435): 88.2 µM
TGI (MOLT-4 leukemia): > 100 µM
TGI (NCI-H226 lung): 41.5 µM
TGI (NCI-H23 lung): 30.9 µM
TGI (NCI-H460 lung): 35.3 µM
TGI (NCI-H522 lung): 49.1 µM
TGI (NCI/ADR-RES ovarian): 40 µM
TGI (OVCAR-3 ovarian): 37.6 µM
TGI (OVCAR-4 ovarian): 38.2 µM
TGI (OVCAR-5 ovarian): 33.3 µM
TGI (OVCAR-8 ovarian): 32.2 µM
TGI (PC-3 prostate): 39.8 µM
TGI (RPMI-8226 leukemia): 64.7 µM
TGI (SF-268 CNS): 32.5 µM
TGI (SF-295 CNS): > 100 µM
TGI (SF-539 CNS): 34.8 µM
TGI (SK-MEL-2 melanoma): 38 µM
TGI (SK-MEL-28 melanoma): > 100 µM
TGI (SK-MEL-5 melanoma): 35.9 µM
TGI (SK-OV-3 ovarian): > 100 µM
TGI (SN12C renal): 57.3 µM
TGI (SNB-19 CNS): > 100 µM
TGI (SR leukemia): 89.8 µM
TGI (SW-620 colon): > 100 µM
TGI (T-47D breast): > 100 µM
TGI (TK-10 renal): 36.3 µM
TGI (U251 CNS): > 100 µM
TGI (UACC-257 melanoma): > 100 µM
TGI (UACC-62 melanoma): 47.2 µM
TGI (UO-31 renal): 26.8 µM

CC[C@H](C)[C@@H]([C@@H](CC(=O)N1CCC[C@H]1[C@H](OC)[C@@H](C)C(=O)N[C@H](C)[C@@H](O)c1ccccc1)OC)N(C)C(=O)[C@@H](NC(=O)[C@@H](NC)C(C)C)C(C)C (H-[NMeV]V[Dil][Dolaproine]-X2)
GI50 (786-0 renal): 0.00646 µM and < 0.01 µM
TGI (786-0 renal): > 100 µM
GI50 (A498 renal): 0.00518 µM
TGI (A498 renal): 0.387 µM
GI50 (A549 NSCLC): < 0.005 µM
TGI (A549 NSCLC): > 100 µM
GI50 (ACHN renal): 0.024 µM and 0.0202 µM
TGI (ACHN renal): > 100 µM
GI50 (BT-549 breast): < 0.005 µM and 0.0141 µM
TGI (BT-549 breast): 0.0507 µM and 0.0821 µM
GI50 (CAKI-1 renal): < 0.01 µM
TGI (CAKI-1 renal): > 94.8 µM
GI50 (CCRF-CEM leukemia): < 0.005 µM
TGI (CCRF-CEM leukemia): > 100 µM
GI50 (COLO 205 colon): < 0.005 µM
TGI (COLO 205 colon): < 0.005 µM
GI50 (DU-145 prostate): < 0.005 µM
TGI (DU-145 prostate): > 100 µM
GI50 (EKVX NSCLC): 0.00692 µM and < 0.01 µM
TGI (EKVX NSCLC): > 100 µM
GI50 (HCC-2998 colon): < 0.005 µM
TGI (HCC-2998 colon): > 100 µM
GI50 (HCT-116 colon): < 0.01 µM
TGI (HCT-116 colon): > 100 µM
GI50 (HCT-15 colon): 0.0444 µM and 0.0233 µM
TGI (HCT-15 colon): > 100 µM
GI50 (HL-60(TB) leukemia): < 0.005 µM
TGI (HL-60(TB) leukemia): 0.00787 µM and < 0.01 µM
GI50 (HOP-62 NSCLC): < 0.005 µM
TGI (HOP-62 NSCLC): > 100 µM
TGI (HOP-92 NSCLC): > 100 µM
GI50 (HS 578T breast): 0.0101 µM and < 0.01 µM
TGI (HS 578T breast): > 100 µM
GI50 (HT29 colon): < 0.005 µM
TGI (HT29 colon): 0.154 µM
GI50 (IGROV1 ovarian): 0.00831 µM and < 0.01 µM
TGI (IGROV1 ovarian): > 100 µM
GI50 (K-562 leukemia): < 0.005 µM
TGI (K-562 leukemia): > 100 µM
GI50 (KM12 colon): < 0.005 µM
TGI (KM12 colon): > 100 µM
GI50 (LOX IMVI melanoma): < 0.005 µM
TGI (LOX IMVI melanoma): > 100 µM
GI50 (M14 melanoma): < 0.005 µM
TGI (M14 melanoma): 0.00705 µM
TGI (MALME-3M melanoma): > 100 µM
GI50 (MCF7 breast): < 0.005 µM
TGI (MCF7 breast): > 100 µM
GI50 (MDA-MB-231 breast): < 0.005 µM
TGI (MDA-MB-231 breast): > 13.1 µM and 1.84 µM
GI50 (MDA-MB-435): < 0.005 µM
TGI (MDA-MB-435): < 0.005 µM
GI50 (MOLT-4 leukemia): < 0.005 µM
TGI (MOLT-4 leukemia): > 100 µM
GI50 (NCI-H226 lung): 0.0179 µM and < 0.0156 µM
TGI (NCI-H226 lung): > 50 µM
GI50 (NCI-H23 lung): < 0.005 µM
TGI (NCI-H23 lung): > 50 µM
GI50 (NCI-H460 lung): < 0.005 µM
TGI (NCI-H460 lung): > 100 µM
GI50 (NCI-H522 lung): < 0.005 µM
TGI (NCI-H522 lung): 0.0122 µM and < 0.01 µM
GI50 (NCI/ADR-RES ovarian): 0.169 µM and 0.118 µM
TGI (NCI/ADR-RES ovarian): > 50 µM and 9.41 µM
GI50 (OVCAR-3 ovarian): < 0.01 µM
TGI (OVCAR-3 ovarian): 0.651 µM
TGI (OVCAR-4 ovarian): > 100 µM
GI50 (OVCAR-5 ovarian): < 0.005 µM
TGI (OVCAR-5 ovarian): > 100 µM
GI50 (OVCAR-8 ovarian): 0.00764 µM and < 0.01 µM
TGI (OVCAR-8 ovarian): > 50 µM
GI50 (PC-3 prostate): < 0.005 µM
TGI (PC-3 prostate): > 100 µM
GI50 (RPMI-8226 leukemia): < 0.005 µM
TGI (RPMI-8226 leukemia): > 100 µM
GI50 (SF-268 CNS): 0.00638 µM and < 0.0108 µM
TGI (SF-268 CNS): > 100 µM
GI50 (SF-295 CNS): < 0.005 µM
TGI (SF-295 CNS): > 100 µM
GI50 (SF-539 CNS): < 0.005 µM
TGI (SF-539 CNS): 0.0128 µM and < 0.0107 µM
GI50 (SK-MEL-2 melanoma): < 0.005 µM
TGI (SK-MEL-2 melanoma): > 100 µM
GI50 (SK-MEL-5 melanoma): < 0.005 µM
TGI (SK-MEL-5 melanoma): 0.0505 µM and 0.0772 µM
GI50 (SK-OV-3 ovarian): < 0.005 µM
TGI (SK-OV-3 ovarian): > 100 µM
GI50 (SN12C renal): < 0.005 µM
TGI (SN12C renal): > 100 µM
GI50 (SNB-19 CNS): < 0.005 µM
TGI (SNB-19 CNS): > 100 µM
GI50 (SNB-75 CNS): < 0.005 µM
TGI (SNB-75 CNS): > 50 µM
GI50 (SR leukemia): < 0.005 µM
TGI (SR leukemia): > 100 µM
GI50 (SW-620 colon): < 0.005 µM
TGI (SW-620 colon): > 100 µM
GI50 (TK-10 renal): > 100 µM
TGI (TK-10 renal): > 100 µM
GI50 (U251 CNS): < 0.005 µM
TGI (U251 CNS): > 100 µM
TGI (UACC-257 melanoma): > 100 µM
GI50 (UACC-62 melanoma): < 0.005 µM
TGI (UACC-62 melanoma): > 100 µM
GI50 (UO-31 renal): 0.0419 µM
TGI (UO-31 renal): > 100 µM
